We go through 13 molecules from ChEMBL document CHEMBL2203136, “Synthesis, characterization, biological evaluation and QSAR studies of 11-p-substituted phenyl-12-phenyl-11a,12-dihydro-11H-indeno[2,1-c][1,5]benzothiazepines as potential antimicrobial agents” (Eur J Med Chem, 2012).

One may read the logP as the decadic logarithm of the partition coefficient of the neutral form, usually between octanol and water. A higher logP goes with a more lipophilic compound.

Molecules are shown by their SMILES. ≈ marks a conversion by molar mass, not a printed value. Calls of active or inactive are those of the source. The rule behind the calls is not given here.

The test system of data set [1] is Pseudomonas aeruginosa. Nature of the data set: Antibacterial activity against Pseudomonas aeruginosa MTCC 7952 after 24 hrs by serial dilution method. Format: functional. The note with it: for MIC: Pseudomonas aeruginosa, MTCC 7952, 24 h.
For data set [2], the system named is Staphylococcus aureus. Nature of the data set: Antibacterial activity against Staphylococcus aureus MTCC 7443 after 24 hrs by serial dilution method relative to 11,12-Diphenyl-11a,12-dihydro-11H-indeno[2,1-c][1,5]benzothiazepine. Format: functional.
The test system of data set [3] is Escherichia coli. Nature of the data set: Antibacterial activity against Escherichia coli MTCC 42 after 24 hrs by serial dilution method relative to 11,12-Diphenyl-11a,12-dihydro-11H-indeno[2,1-c][1,5]benzothiazepine. The class given is functional.
Data set [4] relates to Aspergillus fumigatus. The data set is described as follows: Antifungal activity against Aspergillus fumigatus MTCC 2550 after 72 hrs by serial dilution method. The class given is functional. The note with it: for MIC: Aspergillus fumigatus, MTCC 2550, 72 h.
In data set [5] the test system is Staphylococcus aureus. Nature of the data set: Antibacterial activity against Staphylococcus aureus MTCC 7443 after 24 hrs by serial dilution method. Format: functional. The following applies: for MIC: Staphylococcus aureus, MTCC 7443, 24 h.
The nature of data set [6]: Octanol-water partition coefficient, log P of the compound. The class given is physicochemical.
The subject of data set [7] is Candida albicans. The data set is described as follows: Antifungal activity against Candida albicans MTCC 183 after 72 hrs by serial dilution method relative to 11,12-Diphenyl-11a,12-dihydro-11H-indeno[2,1-c][1,5]benzothiazepine. Format: functional.
The subject of data set [8] is Pseudomonas aeruginosa. Nature of the data set: Antibacterial activity against Pseudomonas aeruginosa MTCC 7952 after 24 hrs by serial dilution method relative to 11,12-Diphenyl-11a,12-dihydro-11H-indeno[2,1-c][1,5]benzothiazepine. The class given is functional.
For data set [9], the system named is Bacillus subtilis. The data set is described as follows: microbe, parasite or virus in culture. The following applies: MTCC 441, 24 h.
For data set [10], the system named is Aspergillus fumigatus. The data set is described as follows: Antifungal activity against Aspergillus fumigatus MTCC 2550 after 72 hrs by serial dilution method relative to 11,12-Diphenyl-11a,12-dihydro-11H-indeno[2,1-c][1,5]benzothiazepine. Format: functional.
The test system of data set [11] is Candida albicans. The data set is described as follows: Antifungal activity against Candida albicans MTCC 183 after 72 hrs by serial dilution method. Format: functional. The following applies: for MIC: Candida albicans, MTCC 183, 72 h.
Data set [12] relates to Escherichia coli. Nature of the data set: Antibacterial activity against Escherichia coli MTCC 42 after 24 hrs by serial dilution method. The class given is functional. The note with it: for MIC: Escherichia coli, MTCC 42, 24 h.
In data set [13] the test system is Bacillus subtilis. The data set is described as follows: Antibacterial activity against Bacillus subtilis MTCC 441 after 24 hrs by serial dilution method relative to 11,12-Diphenyl-11a,12-dihydro-11H-indeno[2,1-c][1,5]benzothiazepine. The class given is functional.
For data set [14], the system named is Bacillus subtilis.

Consider `Cc1ccc(C2Sc3cc(Cl)ccc3N=C3c4ccccc4C(c4ccccc4)C32)cc1` (centres undefined), for which the “-logMIC” value amounted to 1.56 in [1]; 1.56 in [4]; 2.16 in data set [5]; 1.56 in data set [11]; 1.86 in [12]; 1.56 in data set [14]. Also, the MIC in data set [1] worked out at 27.6 µM (≈ 12.5 µg/mL); in data set [4], 27.6 µM (≈ 12.5 µg/mL); in data set [5], 6.9 µM (≈ 3.12 µg/mL); in data set [9], 27.6 µM (≈ 12.5 µg/mL); in data set [11] it was 27.6 µM (≈ 12.5 µg/mL); in data set [12], 13.8 µM (≈ 6.24 µg/mL). Moreover, the Activity in [2] came out at 88.85%; in [3], 88.86%; in data set [7], 55.41%; in data set [8] it was 55.41%; in data set [10], 77.72%; in data set [13], 55.41%. Also, the logP in data set [6] turned out to be 7.95.

For the molecule `Cc1ccc(C2Sc3cc(C)ccc3N=C3c4ccccc4C(c4ccccc4)C32)cc1` (centres undefined), the “-logMIC” value in [1] amounted to 0.94; in data set [4], 0.94; in data set [5] it was 1.54; in [11], 0.94; in [12], 1.24; in data set [14] it was 1.54. Besides, the MIC worked out at 116 µM (≈ 50 µg/mL) in [1]; 116 µM (≈ 50 µg/mL) in [4]; 28.9 µM (≈ 12.5 µg/mL) in data set [5]; 28.9 µM (≈ 12.5 µg/mL) in data set [9]; 116 µM (≈ 50 µg/mL) in data set [11]; 57.9 µM (≈ 25 µg/mL) in data set [12]. Moreover, the Activity in data set [2] was 53.31%; in [3], 53.26%; in data set [7], -87.1%; in data set [8] it was -87.07%; in data set [10], 6.53%; in data set [13], 53.31%. In data set [6], this molecule came in with a logP of 7.9.

For `COc1ccc(C2Sc3cc(C)ccc3N=C3c4ccccc4C(c4ccccc4)C32)cc1` (centres undefined), the “-logMIC” value was 1.25 in [1]; 0.95 in data set [4]; 1.55 in data set [5]; 0.95 in data set [11]; 0.95 in data set [12]; 1.25 in data set [14]. Besides, the MIC in data set [1] came out at 55.8 µM (≈ 25 µg/mL); in [4], 112 µM (≈ 50 µg/mL); in data set [5] it was 27.9 µM (≈ 12.5 µg/mL); in [9], 55.8 µM (≈ 25 µg/mL); in data set [11], 112 µM (≈ 50 µg/mL); in data set [12], 112 µM (≈ 50 µg/mL). The Activity is given as 54.92% in data set [2]; 9.84% in [3]; -80.45% in data set [7]; 9.85% in data set [8]; 9.84% in data set [10]; 9.85% in data set [13]. Moreover, the logP in data set [6] came to 7.18.

Consider `COc1ccc2c(c1)SC(c1ccc(C)cc1)C1C(=N2)c2ccccc2C1c1ccccc1` (centres undefined), for which the “-logMIC” value was 2.16 in [1]; 1.25 in data set [4]; 1.86 in data set [5]; 1.55 in data set [11]; 1.55 in data set [12]; 0.95 in [14]. Moreover, the MIC in data set [1] is 6.9 µM (≈ 3.09 µg/mL); in data set [4], 55.8 µM (≈ 25 µg/mL); in [5] it was 13.9 µM (≈ 6.22 µg/mL); in [9], 112 µM (≈ 50 µg/mL); in [11], 27.9 µM (≈ 12.5 µg/mL); in [12], 27.9 µM (≈ 12.5 µg/mL). Moreover, the Activity is on record as 77.54% in [2]; 77.48% in data set [3]; 54.92% in data set [7]; 88.85% in data set [8]; 54.96% in [10]; -80.45% in data set [13]. Also, in data set [6], the logP was found to be 7.18.

Take `Cc1ccc2c(c1)SC(c1ccccc1)C1C(=N2)c2ccccc2C1c1ccccc1` (centres undefined): the “-logMIC” value in data set [1] was 1.52; in [4], 1.22; in [5] it was 0.92; in data set [11] it was 1.22; in data set [14], 0.92. Moreover, the MIC in data set [1] was found to be 29.9 µM (≈ 12.5 µg/mL); in data set [4], 59.8 µM (≈ 25 µg/mL); in [5], 120 µM (≈ 50 µg/mL); in data set [9], 120 µM (≈ 50 µg/mL); in [11], 59.8 µM (≈ 25 µg/mL). Also, the Activity in [2] is -93.37%; in data set [7] it was 3.39%; in data set [8] it was 51.69%; in data set [10], 51.73%; in [13] it was -93.37%. In data set [6], the logP was determined as 7.43.

Take `c1ccc(C2Sc3ccccc3N=C3c4ccccc4C(c4ccccc4)C32)cc1` (centres undefined): the “-logMIC” value is given as 1.21 in data set [1]; 0.91 in [4]; 1.21 in [5]; 1.21 in data set [11]; 0.91 in data set [12]; 1.21 in data set [14]. Further, the MIC was found to be 61.9 µM (≈ 25 µg/mL) in data set [1]; 124 µM (≈ 50 µg/mL) in [4]; 61.9 µM (≈ 25 µg/mL) in data set [5]; 61.9 µM (≈ 25 µg/mL) in [9]; 61.9 µM (≈ 25 µg/mL) in data set [11]; 124 µM (≈ 50 µg/mL) in [12]. This molecule also yielded a logP in data set [6] of 6.96.

Turning to `COc1ccc2c(c1)SC(c1ccc(Cl)cc1)C1C(=N2)c2ccccc2C1c1ccccc1` (centres undefined), the “-logMIC” value is recorded as 2.16 in [1]; 1.57 in data set [4]; 1.27 in data set [5]; 2.16 in [11]; 1.57 in [12]; 1.57 in data set [14]. Also, the MIC in data set [1] turned out to be 6.9 µM (≈ 3.23 µg/mL); in data set [4], 26.7 µM (≈ 12.5 µg/mL); in data set [5], 53.4 µM (≈ 25 µg/mL); in data set [9], 26.7 µM (≈ 12.5 µg/mL); in [11], 6.9 µM (≈ 3.23 µg/mL); in data set [12], 26.7 µM (≈ 12.5 µg/mL). Further, the Activity is given as 13.73% in data set [2]; 78.45% in [3]; 88.85% in data set [7]; 88.85% in data set [8]; 78.45% in [10]; 56.86% in data set [13]. The logP in data set [6] was 7.23.

With `COc1ccc(C2Sc3ccccc3N=C3c4ccccc4C(c4ccccc4)C32)cc1` (centres undefined), the outcome in [1] and in data set [5] was inactive. The Activity in [3] was 6.94%; in [7], -86.26%; in [10] it was 53.51%; in data set [13], -86.26%. In addition, the “-logMIC” value in data set [4] is on record as 1.24; in data set [11], 0.94; in data set [12] it was 0.94; in data set [14], 0.94. For the same molecule, the MIC in data set [4] was found to be 57.6 µM (≈ 25 µg/mL); in data set [9] it was 115 µM (≈ 50 µg/mL); in data set [11], 115 µM (≈ 50 µg/mL); in data set [12] it was 115 µM (≈ 50 µg/mL). This molecule yielded a logP in data set [6] of 7.95.

On to `OC(Cn1cncn1)(Cn1cncn1)c1ccc(F)cc1F` [FLUCONAZOLE], for which the MIC in [4] and in data set [11] was 10.1 µM (≈ 3.09 µg/mL) throughout.

With `CC1(C)S[C@@H]2[C@H](NC(=O)Cc3ccccc3)C(=O)N2[C@H]1C(=O)O` [PENICILLIN G], the MIC in data set [1] was 18.7 µM (≈ 6.25 µg/mL); in [5] it was 4.6 µM (≈ 1.54 µg/mL); in data set [9], 4.6 µM (≈ 1.54 µg/mL); in data set [12], 37.4 µM (≈ 12.5 µg/mL).

For the molecule `CN[C@@H]1[C@H](O[C@H]2[C@H](O[C@H]3[C@H](O)[C@@H](O)[C@H](N=C(N)N)[C@@H](O)[C@@H]3N=C(N)N)O[C@@H](C)[C@]2(O)C=O)O[C@@H](CO)[C@H](O)[C@H]1O` [STREPTOMYCIN], the MIC in data set [1] was 2.6 µM (≈ 1.51 µg/mL); in [5], 10.7 µM (≈ 6.22 µg/mL); in data set [9] it was 10.7 µM (≈ 6.22 µg/mL); in data set [12] it was 5.3 µM (≈ 3.08 µg/mL).

Take `Cc1ccc(C2Sc3ccccc3N=C3c4ccccc4C(c4ccccc4)C32)cc1` (centres undefined): the result in data set [1], in data set [4] and in data set [11] was inactive. The figures for the Activity in data set [2], in data set [3] and in [13] were -93.37%, 3.38% and 3.39%, respectively. Further, the “-logMIC” value is on record as 0.92 in [5], 0.92 in data set [12] and 1.22 in data set [14]. Also, the MIC amounted to 120 µM (≈ 50 µg/mL) in [5], 59.8 µM (≈ 25 µg/mL) in [9] and 120 µM (≈ 50 µg/mL) in [12]. For the same molecule, the logP in data set [6] was 7.43.

With `Cc1ccc2c(c1)SC(c1ccc(Cl)cc1)C1C(=N2)c2ccccc2C1c1ccccc1` (centres undefined), the “-logMIC” value is 1.56 in data set [1]; 1.26 in data set [4]; 1.26 in [11]; 1.56 in data set [12]; 0.96 in data set [14]. Moreover, the MIC came to 27.6 µM (≈ 12.5 µg/mL) in data set [1]; 55.3 µM (≈ 25 µg/mL) in data set [4]; 111 µM (≈ 50 µg/mL) in data set [9]; 55.3 µM (≈ 25 µg/mL) in [11]; 27.6 µM (≈ 12.5 µg/mL) in [12]. Besides, the Activity is 77.72% in [3]; 10.66% in data set [7]; 55.41% in data set [8]; 55.36% in data set [10]; -78.67% in data set [13]. Moreover, the outcome in [5] was inactive. For the same molecule, in data set [6], the logP amounted to 7.95.
